Measured values taken from patent publication US20240072809A1, “ASGPR-BINDING COMPOUNDS FOR THE DEGRADATION OF EXTRACELLULAR PROTEINS” (Avilar Therapeutics, Inc., priority 2020, published 2024).
Where two headings read alike, the source gives them in different places. Bridge positions count the residues as written; N and C are the ends. Peptide text beside a SMILES is read from it. * marks the point of attachment. X1 = O=C(CCOCC(COCCC(=O)NCCOCCOCCOCCOC[C@@]12CO[C@@H](O1)[C@H](NC(=O)C(F)(F)F)[C@@H](O)[C@H]2O)(COCCC(=O)NCCOCCOCCOCCOC[C@@]12CO[C@@H](O1)[C@H](NC(=O)C(F)(F)F)[C@@H](O)[C@H]2O)NC(=O)CCO[C@H]1C[C@H](OCCC(=O)*)C1)NCCOCCOCCOCCOC[C@@]12CO[C@@H](O1)[C@H](NC(=O)C(F)(F)F)[C@@H](O)[C@H]2O; X3 = CO[C@@H]1O[C@H](COCCOCCOCCOCCNC(=O)CCOCC(COCCC(=O)NCCOCCOCCOCCOC[C@H]2O[C@@H](OC)[C@H](NC(C)=O)[C@@H](O)[C@H]2O)(COCCC(=O)NCCOCCOCCOCCOC[C@H]2O[C@@H](OC)[C@H](NC(C)=O)[C@@H](O)[C@H]2O)NC(=O)COCCOCCOCC(=O)*)[C@H](O)[C@H](O)[C@H]1NC(C)=O

Biological target: ASGPR (Homo sapiens (Human), UniProt P07306)
Test: Affinity to ASGPR measured by surface plasmon resonance (SPR)
Type: binding
[1] = ASGPR ligands, Table 2, Biacore 8K, 25° C., steady state fit, read-out: SPR Binding External Calculation: KD
[2] = ASGPR ligands with linker, Table 5, read-out: ASGPR_SPR Binding KD
[3] = ASGPR ligands, Table 4, class symbols, read-out: ASGPR_PR Binding KD
[4] = ASGPR ligands, Table 4, numeric lower bounds, read-out: ASGPR_PR Binding KD

ASGPR, sequence (P07306 whole entry): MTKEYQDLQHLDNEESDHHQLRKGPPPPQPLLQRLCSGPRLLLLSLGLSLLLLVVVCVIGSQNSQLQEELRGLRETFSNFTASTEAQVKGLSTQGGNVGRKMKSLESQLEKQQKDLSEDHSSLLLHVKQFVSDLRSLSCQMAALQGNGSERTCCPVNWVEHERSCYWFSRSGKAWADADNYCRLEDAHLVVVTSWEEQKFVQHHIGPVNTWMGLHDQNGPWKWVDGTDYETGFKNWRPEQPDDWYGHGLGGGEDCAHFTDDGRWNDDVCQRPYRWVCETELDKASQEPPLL

## CC1C(Oc2ccccc2)O[C@H](CO)[C@H](O)[C@@H]1O (stereo in doubt) [Compound A192, (2R,3R,4R,5R,6S)-2-(hydroxymethyl)-5-methyl-6-phenoxytetrahydro-2H-pyran-3,4-diol]
[1]
  Kd: > 1000 µM

## CC(C)C[C@H]1NC(=O)[C@@H](CC(=O)[C@@H](NC(=O)[C@H](CCC(N)=O)NC(=O)[C@H](Cc2cnc[nH]2)NC(=O)CCOCCOCCOCCOCCNC(=O)CCCc2cn(CCCC(=O)NCCOCc3cnn(CCOCCOCCOCCO[C@@]45CO[C@@H](O4)[C@H](NC(=O)C(F)(F)F)[C@@H](O)[C@H]5O)c3)nn2)C(C)C)CSSC[C@@H](C(=O)N[C@@H](Cc2ccccc2)C(=O)N[C@@H](CO)C(=O)NC(C=O)[C@@H](C)O)NC(=O)[C@H](C(C)C)NC(=O)[C@@H]2CCCN2C(=O)[C@H](CCCNC(=N)N)NC(=O)CNC(=O)[C@@H](CCCNC(=N)N)NC(=O)[C@H](Cc2ccc(O)cc2)NC(=O)[C@H](CO)CC1=O (stereo partly shown) [Compound 26]
Extracellular protein degrading compounds, Table 3, read-out: SPR Binding External Calculation: KD (uM) ASGPR
  Kd: < 100 µM

## CO[C@@H]1O[C@H](COCCOCCOCCOCCNC(=O)CCOCC(COCCC(=O)NCCOCCOCCOCCOC[C@H]2O[C@@H](OC)[C@H](NC(C)=O)[C@@H](O)[C@H]2O)(COCCC(=O)NCCOCCOCCOCCOC[C@H]2O[C@@H](OC)[C@H](NC(C)=O)[C@@H](O)[C@H]2O)NC(=O)COCCOCCOCC(=O)N[C@@H](Cc2cnc[nH]2)C(=O)N[C@@H](CCC(N)=O)C(=O)N[C@H](C(=O)N[C@H]2CSSC[C@@H](C(=O)N[C@@H](Cc3ccccc3)C(=O)N[C@@H](CO)C(=O)N[C@H](C(N)=O)[C@@H](C)O)NC(=O)[C@H](C(C)C)NC(=O)[C@@H]3CCCN3C(=O)[C@H](CCCNC(=N)N)NC(=O)CNC(=O)[C@H](CCCNC(=N)N)NC(=O)[C@H](Cc3ccc(O)cc3)NC(=O)[C@H](CO)NC(=O)[C@H](CC(C)C)NC2=O)C(C)C)[C@H](O)[C@H](O)[C@H]1NC(C)=O [Compound 30] (X3-HQVCLSYRGRPVCFST-NH2; disulfide 4-13)
read-out: ASGPR_SPR Binding KD
  Kd: < 100 µM

## CC(C)C[C@@H]1NC(=O)[C@@H](NC(=O)[C@@H](NC(=O)[C@H](CCC(N)=O)NC(=O)[C@H](Cc2cnc[nH]2)NC(=O)CCO[C@H]2C[C@H](OCCC(=O)NC(COCCC(=O)NCCOCCOCCOCCOC[C@@]34CO[C@@H](O3)[C@H](NC(=O)C(F)(F)F)[C@@H](O)[C@H]4O)(COCCC(=O)NCCOCCOCCOCCOC[C@@]34CO[C@@H](O3)[C@H](NC(=O)C(F)(F)F)[C@@H](O)[C@H]4O)COCCC(=O)NCCOCCOCCOCCOC[C@@]34CO[C@@H](O3)[C@H](NC(=O)C(F)(F)F)[C@@H](O)[C@H]4O)C2)C(C)C)CSSC[C@@H](C(=O)N[C@@H](Cc2ccccc2)C(=O)N[C@@H](CO)C(=O)N[C@H](C(N)=O)[C@@H](C)O)NC(=O)[C@H](C(C)C)NC(=O)[C@@H]2CCCN2C(=O)[C@H](CCCNC(=N)N)NC(=O)CNC(=O)[C@H](CCCNC(=N)N)NC(=O)[C@H](Cc2ccc(O)cc2)NC(=O)[C@H](CO)NC1=O [Compound 31] (X1-HQVCLSYRGRPVCFST-NH2; disulfide 4-13)
[2]
  Kd: < 100 µM

## CC(=O)N[C@@H]1CO[C@H](COCCOCCOCCOCCNC(=O)CCOCC(COCCC(=O)NCCOCCOCCOCCOC[C@H]2OC[C@@H](NC(C)=O)[C@@H](O)[C@H]2O)(COCCC(=O)NCCOCCOCCOCCOC[C@H]2OC[C@@H](NC(C)=O)[C@@H](O)[C@H]2O)NC(=O)COCCOCCOCCNc2ccc([N+](=O)[O-])cc2[N+](=O)[O-])[C@H](O)[C@@H]1O [Compound 33, 3,3′-((2-(2-(2-(2-(2-((2,4-dinitrophenyl)amino)ethoxy)ethoxy)ethoxy)acetamido)propane-1,3-diyl)tris(oxy))tris(N-(1-((2R,3R,4R,5R)-5-acetamido-3,4-dihydroxytetrahydro-2H-pyran-2-yl)-2,5,8,11-tetraoxatridecan-13-yl)propanamide)]
[2]
  Kd: < 100 µM

## O=[N+]([O-])c1ccc(NCCOCCOCCOCCOC[C@H]2OC[C@H](Nc3nccc(C(F)(F)F)n3)[C@@H](O)[C@H]2O)c([N+](=O)[O-])c1 [Compound 35, (2R,3R,4R,5S)-2-(13-((2,4-dinitrophenyl)amino)-2,5,8,11-tetraoxatridecyl)-5-((4-(trifluoromethyl)pyrimidin-2-yl)amino)tetrahydro-2H-pyran-3,4-diol]
[2]
  Kd: < 100 µM

## CO[C@@H]1O[C@H](CO)[C@H](O)[C@H](O)[C@H]1N [Compound A90, (2R,3R,4R,5R,6R)-5-amino-2-(hydroxymethyl)-6-methoxytetrahydro-2H-pyran-3,4-diol]
[1]
  Kd: 100 to 500 µM

## CO[C@H]1O[C@H](CO)[C@H](O)[C@H](O)[C@H]1N [Compound A91, (2R,3R,4R,5R,6S)-5-amino-2-(hydroxymethyl)-6-methoxytetrahydro-2H-pyran-3,4-diol]
[3]
  Kd: < 100 µM

## N[C@H]1CO[C@H](CO)[C@H](O)[C@@H]1O [Compound A92, (2R,3R,4R,5S)-5-amino-2-(hydroxymethyl)tetrahydro-2H-pyran-3,4-diol]
[1]
  Kd: > 1000 µM

## N#Cc1sc(N[C@H]2CO[C@H](CO)[C@H](O)[C@@H]2O)nc1Cl [Compound A95, 4-chloro-2-(((3S,4R,5R,6R)-4,5-dihydroxy-6-(hydroxymethyl)tetrahydro-2H-pyran-3-yl)amino)thiazole-5-carbonitrile]
[1]
  Kd: < 100 µM

## OC[C@H]1OC[C@H](Nc2ncc(Cl)cc2F)[C@@H](O)[C@H]1O [Compound A100]
[1]
  Kd: < 100 µM

## OC[C@H]1OC[C@H](Nc2ncc(F)cc2F)[C@@H](O)[C@H]1O [Compound A103]
[1]
  Kd: 100 to 500 µM

## CO[C@H]1O[C@H](CO)[C@H](O)[C@H](O)[C@H]1Nc1nc(Cl)ns1 [Compound A105, (2R,3R,4R,5R,6S)-5-((3-chloro-1,2,4-thiadiazol-5-yl)amino)-2-(hydroxymethyl)-6-methoxytetrahydro-2H-pyran-3,4-diol]
[1]
  Kd: < 100 µM

## CO[C@@H]1O[C@H](CO)[C@H](O)[C@H](O)[C@H]1Nc1nc(Cl)ns1 [Compound A106, (2R,3R,4R,5R,6R)-5-((3-chloro-1,2,4-thiadiazol-5-yl)amino)-2-(hydroxymethyl)-6-methoxytetrahydro-2H-pyran-3,4-diol]
[1]
  Kd: < 100 µM

## CO[C@@H]1O[C@H](CO)[C@H](O)[C@H](O)[C@H]1Nc1cccc(F)n1 [Compound A107, (2R,3R,4R,5R,6R)-5-((6-fluoropyridin-2-yl)amino)-2-(hydroxymethyl)-6-methoxytetrahydro-2H-pyran-3,4-diol]
[1]
  Kd: > 1000 µM

## CO[C@@H]1O[C@H](CO)[C@H](O)[C@H](O)[C@H]1Nc1nc(Cl)cs1 [Compound A108]
[1]
  Kd: < 100 µM

## CO[C@@H]1O[C@H](CO)[C@H](O)[C@H](O)[C@H]1Nc1ncc(Cl)cc1F [Compound A109]
[1]
  Kd: < 100 µM

## CO[C@@H]1O[C@H](CO)[C@H](O)[C@H](O)[C@H]1Nc1nc(=O)[nH]c(=O)[nH]1 [Compound A112, 6-(((2R,3R,4R,5R,6R)-4,5-dihydroxy-6-(hydroxymethyl)-2-methoxytetrahydro-2H-pyran-3-yl)amino)-1,3,5-triazine-2,4(1H,3H)-dione]
[1]
  Kd: < 100 µM

## CO[C@H]1O[C@H](CO)[C@H](O)[C@H](O)[C@H]1Nc1ncc(Cl)cc1F [Compound A113]
[1]
  Kd: < 100 µM

## CO[C@@H]1O[C@H](CO)[C@H](O)[C@H](O)[C@H]1Nc1nc(N2CCN(C)CC2)ns1 [Compound A116, (2R,3R,4R,5R,6R)-2-(hydroxymethyl)-6-methoxy-5-((3-(4-methylpiperazin-1-yl)-1,2,4-thiadiazol-5-yl)amino)tetrahydro-2H-pyran-3,4-diol]
[1]
  Kd: < 100 µM

## CO[C@@H]1O[C@H](CO)[C@H](O)[C@H](O)[C@H]1Nc1nc(N2CCOCC2)ns1 [Compound A117, (2R,3R,4R,5R,6R)-2-(hydroxymethyl)-6-methoxy-5-((3-morpholino-1,2,4-thiadiazol-5-yl)amino)tetrahydro-2H-pyran-3,4-diol]
[1]
  Kd: 100 to 500 µM

## C=CC(=O)N[C@H]1[C@H](OC)O[C@H](CO)[C@H](O)[C@@H]1O [Compound A118, N-((2R,3R,4R,5R,6R)-4,5-dihydroxy-6-(hydroxymethyl)-2-methoxytetrahydro-2H-pyran-3-yl)acrylamide]
[1]
  Kd: < 100 µM

## CO[C@@H]1O[C@H](CO)[C@H](O)[C@H](O)[C@H]1n1ccc(=O)cc1 [Compound A119, 1-((2R,3R,4R,5R,6R)-4,5-dihydroxy-6-(hydroxymethyl)-2-methoxytetrahydro-2H-pyran-3-yl)pyridin-4(1H)-one]
[1]
  Kd: < 100 µM

## CC(=O)N[C@@H]1CO[C@H](CO)[C@H](O)[C@@H]1O [Compound A127, N-((3R,4R,5R,6R)-4,5-dihydroxy-6-(hydroxymethyl)tetrahydro-2H-pyran-3-yl)acetamide]
[1]
  Kd: < 100 µM

## CC(=O)N[C@@H]1CO[C@@H]2COC(C)(C)O[C@@H]2[C@@H]1O [Compound A127-2c, N-((4aR,7R,8R,8aR)-8-hydroxy-2,2-dimethylhexahydropyrano[3,2-d][1,3]dioxin-7-yl)acetamide]
[4]
  Kd: > 200 µM

## N[C@@H]1CO[C@H](CO)[C@H](O)[C@@H]1O [Compound A128, (2R,3R,4R,5R)-5-amino-2-(hydroxymethyl)tetrahydro-2H-pyran-3,4-diol]
[1]
  Kd: > 1000 µM

## CS(=O)(=O)N[C@@H]1CO[C@H](CO)[C@H](O)[C@@H]1O [Compound A131, N-((3R,4R,5R,6R)-4,5-dihydroxy-6-(hydroxymethyl)tetrahydro-2H-pyran-3-yl)methanesulfonamide]
[3]
  Kd: 100 to 500 µM

## O=C(N[C@@H]1CO[C@H](CO)[C@H](O)[C@@H]1O)c1ccccc1 [Compound A136, N-((3R,4R,5R,6R)-4,5-dihydroxy-6-(hydroxymethyl)tetrahydro-2H-pyran-3-yl)benzamide]
[3]
  Kd: 100 to 500 µM

## OC[C@H]1OC[C@@H](Nc2nc(Cl)ns2)[C@@H](O)[C@H]1O [Compound A146, (2R,3R,4R,5R)-5-((3-chloro-1,2,4-thiadiazol-5-yl)amino)-2-(hydroxymethyl)tetrahydro-2H-pyran-3,4-diol]
[3]
  Kd: < 100 µM

## OC[C@H]1OC[C@@H](Nc2ccncn2)[C@@H](O)[C@H]1O [Compound A149]
[4]
  Kd: > 20 µM

## CS(=O)(=O)NC(=O)N[C@H]1CO[C@H](CO)[C@H](O)[C@@H]1O [Compound A157, N-(((3S,4R,5R,6R)-4,5-dihydroxy-6-(hydroxymethyl)tetrahydro-2H-pyran-3-yl)carbamoyl)methanesulfonamide]
[4]
  Kd: > 20 µM
